Laboratory results published in US20180352814A1 (priority 2015, published 2018).

Tests used:
Assay type in all cases: in vivo
[1] = test system: tomato late blight fungus (Phytophthora infestans); settings: 500 ppm foliage spray; tomato variety PATIO; inoculated 1 day after spraying
[2] = test system: soybean frogeye leaf spot (Cercospora sojina) fungus; test: Test Example 15: Control Test on Soybean Frogeye Leaf Spot (Cercospora sojina); settings: 200 ppm foliage spray 5 days after inoculation; soybean cultivar TACHINAGAHA
Excerpt: (§1) The non-treatment in Test Examples 5 to 20 means that foliage application of a mixture of a preparation containing the present compound and water was not performed.
Control Test on Soybean Frogeye Leaf Spot (Cercospora sojina)
Each of plastic pots was filled with soil and soybean (cultivar: TACHINAGAHA) was sowed and grown in a greenhouse for 13 days. Thereafter, an aqueous suspension containing spores of soybean frogeye leaf spot (Cercospora sojina) fungus was sprayed to inoculate the spores. After inoculation, the soybean was at first left to stand in a greenhouse at 23° C. in the daytime under high humidity condition for 4 days, and cultivated in a greenhouse at 23° C. for 1 day. Then, the present compound 11 formulated in accordance with the method mentioned in Formulation Example 6 was mixed with water so as to adjust the concentration to 200 ppm, and the mixture was sprayed over stems and leaves of the soybean so that it sufficiently adhered to the surface of the leaves of the soybean. After spraying, the soybean was air-dried and cultivated in a greenhouse at 24° C. during the day and 20° C. at night for 21 days, and then the area of lesion spots was investigated.

[3] = test system: cucumber powdery mildew fungus (Sphaerotheca fuliginea); test: Test Example 20: Control Test on Cucumber Powdery Mildew (Sphaerotheca fuliginea); settings: 200 ppm foliage spray; cucumber cultivar SAGAMI HANJIRO; inoculated 1 day after spraying
Excerpt: as §1
Control Test on Cucumber Powdery Mildew (Sphaerotheca fuliginea)
Each of plastic pots was filled with soil and cucumber (cultivar; SAGAMI HANJIRO) was sowed and grown in a greenhouse for 12 days. Then, the present compound 41 formulated in accordance with the method mentioned in Formulation Example 6 was mixed with water so as to adjust the concentration to 200 ppm, and the mixture was sprayed over stems and leaves of the cucumber so that it sufficiently adhered to the surface of the leaves of the cucumber. After spraying, the […] was air-dried. After the cucumber was left to stand in a greenhouse at 24° C. during the day and 20° C. at night for 1 day, the spores of the cucumber seedling (cultivar; SAGAMI HANJIRO) infected by cucumber powdery mildew fungus were sprinkling-inoculated. After inoculation, the cucumber was cultivated in a greenhouse at 24° C. during the day and 20° C. at night for 8 days, and then the area of lesion spots was investigated.

[4] = test system: soybean rust fungus (Phakopsora pachyrhizi); test: Test Example 9: Control Test on Soybean Rust (Phakopsora pachyrhizi), spraying after inoculation; settings: 200 ppm foliage spray 3 days after inoculation; soybean cultivar KUROSENGOKU
Excerpt: as §1
(§2) Control Test on Soybean Rust (Phakopsora pachyrhizi)
Each of plastic pots was filled with soil and soybean (cultivar: KUROSENGOKU) was sowed and grown in a greenhouse for 10 days. Thereafter, an aqueous suspension containing spores of soybean rust fungus was sprayed to inoculate the spores. After inoculation, the soybean was at first left to stand in a greenhouse at 23° C. in the daytime and 20° C. at night under high humidity condition for 1 day and cultivated in a greenhouse at room temperature for 2 days. Then, the present compound 1 to 9, 11 to 23, 26 to 33, 35 to 41, or 44 formulated in accordance with the method mentioned in Formulation Example 6 was mixed with water so as to adjust the concentration to 200 ppm, and the mixture was sprayed over stems and leaves of the soybean so that it sufficiently adhered to the surface of the leaves of the soybean. After spraying, the soybean was air-dried and cultivated in a greenhouse for 8 days, and then the area of lesion spots was investigated.

[5] = test system: soybean rust fungus (Phakopsora pachyrhizi); test: Test Example 10: Control Test on Soybean Rust (Phakopsora pachyrhizi), spraying before inoculation; settings: 200 ppm foliage spray; soybean cultivar KUROSENGOKU; inoculated 4 days after spraying
Excerpt: as §1, §2
Each of plastic pots was filled with soil and soybean (cultivar: KUROSENGOKU) was sowed and grown in a greenhouse for 13 days. Then, the present compound 1 to 9, 11 to 21, 29 to 37, or 44 formulated in accordance with the method mentioned in Formulation Example 6 was mixed with water so as to adjust the concentration to 200 ppm, and the mixture was sprayed over stems and leaves so that it sufficiently adhered to the surface of the leaves of the soybean. After spraying, the soybean was air-dried. After 4 days, an aqueous suspension containing spores of soybean rust fungus was sprayed to inoculate the spores. After inoculation, the soybean was at first left to stand in a greenhouse at 23° C. in the daytime and 20° C. at night under high humidity condition for 1 day, and then cultivated in a greenhouse for 10 days, and the area of lesion spots was investigated. As a result, the area of lesion spots on the soybean treated with the present compound 1 to 9, 11 to 21, 29 to 37, or 44 was 30% or less of that on a non-treated soybean.

## CCOCCNC(=O)Oc1ccc(-c2noc(C(F)(F)F)n2)cc1 [compound 9]
[1]
  area of lesion spots on the treated tomato relative to that on a non-treated tomato: ≤ 30%

## COCCN(C)C(=O)Oc1ccc(-c2noc(C(F)(F)F)n2)cc1F [compound 11]
[2]
  area of lesion spots on the treated soybean relative to that on a non-treated soybean: ≤ 30%

## CC1(C(=O)Nc2ccc(-c3noc(C(F)(F)F)n3)cc2)CC1 [compound 41]
[3]
  area of lesion spots on the treated cucumber relative to that on a non-treated cucumber: ≤ 30%

## O=C(Oc1ccc(-c2noc(C(F)(F)F)n2)cc1)C1CCCCC1 [compound 44]
[4]
  area of lesion spots on the treated soybean relative to that on a non-treated soybean: ≤ 30%
[5]
  area of lesion spots on the treated soybean relative to that on a non-treated soybean: ≤ 30%
